“And” between values parts separate entries of the source, which are not always exact repeats. Equal values may be shown once. “Also recorded” adds a separate entry of the source.
How the values were obtained:
[1] = Clinical observation of mini-pigs for adverse events / ivermectin toxicity signs; type: in vivo, mini-pig; conditions: oral ivermectin 800 mcg/kg with or without ketoconazole or rifampicin pre-treatment
Method: Six hybrid mini-pigs (2 male, 4 female) weighing between 46 and 70 kg were procured from our accredited breeding centre at the University of Navarra. They were housed individually throughout the study at the animal research facilities in the University of Navarra. From arrival onward, the animals were assessed daily for general wellbeing and after the intervention, also for specific ivermectin toxicity signs.

Anopheles gambiae [2] = experiment: Synergistic mosquito bioassay: membrane feeding with mini-pig serum samples, mortality follow-up; type: in vivo, Anopheles gambiae s.s.; conditions: for Mean survival / Time to median mortality: Anopheles gambiae, membrane feeding
Method: Mosquitoes were membrane fed with reconstituted blood as described by Bousema et al.[51].
Since mosquitoes grouped in cups for feeding, we used a cluster design in which the unit of intervention was mosquito cups. Our primary outcome was mean 10-day mosquito mortality after membrane feeding. Sample size calculations were conducted according to the method described by Gangnon and Kosorok[52]. The minimum expected 10-day mortality in mosquitoes imbibing blood containing 9.9 ng/ml of ivermectin is 66%; this is based on the predictive function described by Ouedraogo et al.[50]. Based on previous observations and with all mosquitoes having the same colony origin and age range, we chose a conservative intracluster correlation of 0.15. The frailty variance of clusters was resembled by a gamma of 1. All experiments were performed in triplicate. With these parameters, at least 4 clusters of 44 mosquitoes were needed per arm to achieve 80% power at 5% significance level accounting for 10% non-feeders.
Baseline serum samples collected before ivermectin treatment in ketoconazole and naïve pigs were used as controls. These samples were shipped frozen to the insectary facilities of the Ifakara Health Institute in Bagamoyo, Tanzania for membrane feeding assays. It was hypothesised that induction of the mosquito CYP/P-gp by rifampicin could improve survival in presence of ivermectin, but this could not be tested due to a reduced absorption of ivermectin in the mini-pigs pre-treated with rifampicin (see below).
For all experiments, we used the fully susceptible Anopheles gambiae s.s. colony maintained at the insectary in Bagamoyo. Mosquitoes were reared at 28 °C, 80% humidity and with a photoperiod of 12:12. Larvae were kept in large plastic bowls covered with netting containing approximately 2 litres of water with larval densities not exceeding one 4th instar larvae per ml. Larvae were fed Tetramine fish flakes ad libitum. Once they developed into pupae these were collected using disposable plastic Pasteur pipettes and transferred to small bowls containing approximately 200 ml of clean water. The pupae bowls were then placed inside fully screened cages (30 × 30 × 30 cm) where adult mosquitoes were allowed to emerge and given 10% glucose as a sugar source ad libitum.
Only mosquitoes of 2–5 days of age were used for the experiments. Before the experiments, mosquitoes were starved from sugar for 12–18 hours and from water for one hour. Hungry females were selected by applying a bottle with heated water (37–40 °C) to the cage. 40–50 hungry females were transferred to each paper cup using a mouth aspirator.
We performed membrane feeding assays with serum replacement as previously described. For each experiment, the selected pig sample was thawed and 1 ml of whole blood was centrifuged at 2100 rpm for 10 minutes. The serum volume was noted and replaced with the same amount of the sample pig-serum being tested. After this, tubes were inverted 10 times. Each sample was tested in triplicate.
In order to reduce potential confounding arising from variations in bloodmeal size, partially fed mosquitoes were discarded and only fully engorged females followed up for the mortality assessment. After each feeding experiment, the cups were placed on ice for 1–2 minutes to select and transfer fully engorged females.
Cups with fully engorged mosquitoes were kept at 24–26 °C and 65–70% relative humidity inside climate controlled incubators. Mosquitoes were maintained with 10% glucose solution using impregnated cotton. Mortality was recorded daily for 9 days by a person blinded to the allocation of the cups. Dead mosquitoes were removed from the cups daily.
Survival Kaplan-Meier analysis was performed in Addinsoft’s XLSTAT ® Version 2016.04.32229 (New York, NY, USA). Comparisons of survival patterns were done with Log-rank test using a 5% significance level adjusted for cluster design.

[3] = Drug-drug interaction study: ivermectin plasma pharmacokinetics in mini-pigs; conditions: for AUC inf, Median (Range) / Cmax, Median (Range) / AUC > LD50, Median (Range) / Time > LD50, Median (Range): group median (range); for AUC inf, Median (Range) / Cmax, Median (Range): plasma ivermectin, single oral 800 mcg/kg; for AUC inf, Median (Range) / Cmax, Median (Range) / AUC > LD50, Median (Range) / Time > LD50, Median (Range) / Time > LD50: treatment group as in the label; for AUC > LD50, Median (Range): area under the plasma ivermectin curve above 6 ng/ml; for AUC > LD50, Median (Range) / Time > LD50, Median (Range) / Time > LD50: oral 800 mcg/kg; for Time > LD50, Median (Range): time plasma ivermectin is above 6 ng/ml; for Time > LD50: individual mini-pig, time plasma ivermectin is above 6 ng/ml (10-day LC50 for Anopheles gambiae)
Method: (§1) The experiments were conducted following a randomised crossover design (Fig. 1). In phase I all mini-pigs received a single 800 mcg/kg dose of oral ivermectin and sampling was done as described below. […] The total wash-out period between ivermectin doses was 30 days. […] Inhibiting the P-gp could theoretically lead to toxicity due to abnormal accumulation of the drug in the brain[30], [31]. […] Irrespectively of this, drug quantification in cerebrospinal fluid (CSF) was added as an additional safety point. Rifampicin a CYP/P-gp inducer[49] was included as we expected to see reduced bioavailability and penetration into CSF.
The pre-medication drugs were administered by crushing the tablets and mixing them with canned meat products used for enrichment. For ivermectin administration and sampling during the first 8 hours, the animals were sedated with a single intramuscular dose of tiletamine-zolazepan (4 mg/kg) and maintained with inhalatory isoflurane (1.5–2%). In pigs, there is no evidence of a significant interaction (other than being a substrate) of these drug classes with the CYP3A4 or the P-gp[80]. Ivermectin was administered via nasogastric tube.
For blood sampling during the first eight hours, a femoral line was left in place and later removed during recovery from anaesthesia. Blood sampling thereafter was done by jugular puncture under restrain. […] For the mosquito bioassay, additional serum samples were obtained at every time point, and frozen at −20 °C.
Blood samples were drawn in 3 ml EDTA tubes and centrifuged. Plasma was separated and frozen at −20 °C until analysis. CSF samples were frozen at −20 °C.
(§2) Ivermectin levels in plasma and CSF were determined using a validated adaptation of a previously described HPLC-FLD[82]. The detection limit in plasma and CSF was 0.1 ng/ml, the quantification limit was 0.5 ng/ml.
Pharmacokinetic analyses were performed using Phoenix WinNonlin 6.4 (Certara, Princeton, NJ, USA). Pharmacokinetic parameters were derived from non-compartmental analyses.
The comparison of PK parameters between ivermectin groups was done by means of a two-sided Mann-Whitney test.

[4] = minipig, in vivo
Method: as §1
For obtaining CSF samples during the first 8 hours, an intrathecal catheter was placed by means of fluoroscopy-guided lateral lumbar puncture[81] (Fig. 5). Given the challenges posed by the particular anatomy of the pig, efforts were done to tunnel the intrathecal catheter and connect it to a subcutaneous reservoir in order to avoid repeating the technically demanding lumbar puncture during phase II of the study (Fig. 5). […] Sampling points for CSF were: pre-treatment and at 0.5, 1, 2, 3, 4, 5, 6, 7 and 8 hours. […]
as §2

[5] = cited from earlier work
Anopheles gambiae [6] = test system: Anopheles gambiae; design: method as in PMID 25414262; conditions: cited from earlier work
CYP 3A4 = test system: CYP 3A4; design: method as in PMID 19255936; conditions: estimated; cited from earlier work
[7] = Pair 1: ivermectin 9.98 (IVM) vs 8.96 (KET) ng/ml in the fed sample
[8] = Pair 2: ivermectin 16.5 (IVM) vs 17.23 (KET) ng/ml in the fed sample
[9] = Pair 3: ivermectin 20.46 (IVM) vs 20.39 (KET) ng/ml in the fed sample
[10] = Pair 4: ivermectin 27.58 (IVM) vs […] (KET) ng/ml in the fed sample

With `CCC(C)C1OC2(CCC1C)CC1CC(CC=C(C)C(OC3CC(OC)C(OC4CC(OC)C(O)C(C)O4)C(C)O3)C(C)C=CC=C3COC4C(O)C(C)=CC(C(=O)O1)C34O)O2` (stereo not shown) [Ivermectin] the clinical adverse events [1] was “No clinical adverse events were observed”, the Mean survival (Anopheles gambiae [2]; [7]) was 6.73 (6.29–7.17) days and the “Time to median mortality” value (Anopheles gambiae [2]; [7]) was 7 days. The Mean survival (Anopheles gambiae [2]; [8]) was 5.11 (4.63–5.86) days, the “Time to median mortality” value (Anopheles gambiae [2]; [8]) was 5 days and the Mean survival (Anopheles gambiae [2]; [9]) was 7.43 (7.11–7.75) days. For the same compound, the “Time to median mortality” value (Anopheles gambiae [2]; [9]) was 7 days, the Mean survival (Anopheles gambiae [2]; [10]) was 5.28 (4.54–6.02) days and the “Time to median mortality” value (Anopheles gambiae [2]; [10]) was 5 days. For the same compound, the “AUC inf, Median (Range)” value ([3]; listed as Ivermectin 1) was 244 (1899) h·ng/mL, the “Cmax, Median (Range)” value ([3]; listed as Ivermectin 1) was 8.7 (26.0) ng/mL and the “AUC inf, Median (Range)” value ([3]; listed as Ivermectin 2) was 1205.3 (349) h·ng/mL. The “Cmax, Median (Range)” value ([3]; listed as Ivermectin 2) was 18 (5.6) ng/mL, the “AUC inf, Median (Range)” value ([3]; listed as Ivermectin(combined)) was 862.7 (1899) h·ng/mL and the “AUC > LD50, Median (Range)” value ([3]; listed as Ivermectin 1) was 23.7 (509.4) h·g/mL. The “AUC > LD50, Median (Range)” value ([3]; listed as Ivermectin 2) was 297.6 (142.6) h·g/mL, the “Time > LD50, Median (Range)” value ([3]; listed as Ivermectin 1) was 4.6 (46.7) h and the “Time > LD50, Median (Range)” value ([3]; listed as Ivermectin 2) was 49.9 (9.1) h. For the same compound, the “Time > LD50” value ([3]; listed as Ivermectin 1) was 9.3 h, the “Time > LD50” value ([3]; listed as Ivermectin 2) was 54.5 h and 45.4 h and the “Time > LD50” value ([3]; listed as Ivermectin(combined)) was 46.7 h and 27.2 h and 0.0 h. The “increase in ivermectin time above LC50” value ([3]; ketoconazole pre-treatment vs ivermectin alone, mini-pigs) was 3 fold, the “median Cmax” value ([3]; plasma ivermectin in mini-pigs, ivermectin alone (combined) vs ketoconazole pre-treatment, P = 0.033) was 14 ng/mL and the “total AUC” value ([3]; plasma ivermectin in mini-pigs, ivermectin alone (combined) vs ketoconazole pre-treatment, P = 0.067, not significant) was 862 ng·h/mL. The “ivermectin concentration in CSF” value [4] was less than 0.5 ng/mL, the “number of CSF samples in which ivermectin was detectable” value [4] was 4 and the “time for which concentrations that kill 50% of Anopheles gambiae in 10 days are sustained” value ([5]; after the single dose of 200 mcg/kg commonly used for NTDs, no reference given) was “around 72 hours”. For the same compound, the half-life [5] was 18 h, the “10-day lethal concentration 50 (LC50)” value (Anopheles gambiae [6]; kills 50% of Anopheles gambiae in 10 days) was 6 ng/ml and the “minimum expected 10-day mortality” value (Anopheles gambiae [6]; mosquitoes imbibing blood containing 9.9 ng/ml of ivermectin, from predictive function) was 66%.
With `CO[C@H]1/C=C/O[C@@]2(C)Oc3c(C)c(O)c4c(O)c(c(/C=N/N5CCN(C)CC5)c(O)c4c3C2=O)NC(=O)/C(C)=C\C=C\[C@H](C)[C@H](O)[C@@H](C)[C@@H](O)[C@@H](C)[C@H](OC(C)=O)[C@@H]1C` [rifampicin, Rifampicin] the “effect of pre-treatment on ivermectin absorption” value ([3]; rifampicin pre-treatment (CYP/P-gp induction), mini-pigs, oral ivermectin 800 mcg/kg) was “markedly impaired ivermectin absorption; also recorded: seriously hampered ivermectin absorption”.
In the case of `CC(=O)N1CCN(c2ccc(OCC3COC(Cn4ccnc4)(c4ccc(Cl)cc4Cl)O3)cc2)CC1` (stereo not shown) [ketoconazole], the IC50 (CYP 3A4) is given as […], the “effect on mortality of Anopheles gambiae fed samples containing ivermectin” value (Anopheles gambiae [2]; ketoconazole at CYP inhibition concentrations, matched ivermectin concentrations (+/−1 ng/ml), all four pairs) is given as “significantly increased the mortality” and the “effect on 10-day mortality of Anopheles gambiae” value (Anopheles gambiae [2]; ketoconazole-only baseline pig sample vs fully drug-free sample, Log-rank P = 0.048, n = 222) is given as “did not increase the mortality”.

From article PMC5561046, “Cytochrome P450/ABC transporter inhibition simultaneously enhances ivermectin pharmacokinetics in the mammal host and pharmacodynamics in Anopheles gambiae” (Scientific Reports, 2017)
